Values joined by “and” are separate entries in the source; they are usually repeats but may differ in a detail not shown here. Identical values can stand only once. Like-named read-outs stand apart in the source and are kept apart here.
Assays:
[1] = target: T1, OATP1A2 (Homo sapiens, UniProt P46721); assay: OATP1A2-mediated sulforhodamine 101 uptake in A431 cells overexpressing OATP1A2; format: cell-based; settings: for IC50: A431-OATP1A2 cells
T1 construct: host or cells: A431
T1 sequence (P46721 1-670): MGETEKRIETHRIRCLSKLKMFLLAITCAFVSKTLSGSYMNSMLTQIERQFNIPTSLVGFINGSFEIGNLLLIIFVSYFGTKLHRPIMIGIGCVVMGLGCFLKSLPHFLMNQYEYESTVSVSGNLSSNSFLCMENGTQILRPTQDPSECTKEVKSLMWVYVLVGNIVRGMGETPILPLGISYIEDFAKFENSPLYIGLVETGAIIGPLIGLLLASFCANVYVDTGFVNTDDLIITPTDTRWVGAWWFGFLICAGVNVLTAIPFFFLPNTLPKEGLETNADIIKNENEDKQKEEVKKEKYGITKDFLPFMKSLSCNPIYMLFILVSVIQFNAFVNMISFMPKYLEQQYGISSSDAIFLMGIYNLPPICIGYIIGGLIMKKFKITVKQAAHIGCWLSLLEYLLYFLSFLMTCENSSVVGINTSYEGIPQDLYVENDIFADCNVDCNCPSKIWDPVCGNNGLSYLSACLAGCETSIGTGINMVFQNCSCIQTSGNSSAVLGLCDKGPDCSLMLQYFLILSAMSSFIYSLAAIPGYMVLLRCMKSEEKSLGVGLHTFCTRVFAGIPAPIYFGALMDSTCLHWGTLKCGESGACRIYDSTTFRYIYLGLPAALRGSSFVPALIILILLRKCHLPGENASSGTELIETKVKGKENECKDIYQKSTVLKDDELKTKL
Procedure: A431 cells overexpressing human OATPs, 1A2 (BC042452, HsCD00333163), 1B1 (Gene ID: AB026257), 1B3 (BC141525, HsCD00348132) or 2B1 (BC041095.1, HsCD00378878), or their mock transfected controls, were generated as previously described. Cells were cultured in Dulbecco’s Modified Eagle Medium (DMEM; Thermo Fischer Scientific, Waltham, MA, USA) supplemented with 10% fetal bovine serum, 2 mM L-glutamine, 100 units/mL penicillin and 100 µg/mL streptomycin, at 37 °C with 5% CO2.
The interaction between flavonoids and OATPs was investigated in an indirect assay employing the fluorescent dye substrates, pyranine and sulforhodamine 101 [51, 52]. Briefly, A431 cell overexpressing OATPs, 1A2, 1B1, 1B3 or 2B1, or their mock transfected controls, were seeded on 96-well plates in a density of 8x10^4 cells/well in 200 μL DMEM one day prior to the transport measurements. […] The reaction was started by the addition of 50 μL uptake buffer containing pyranine in a final concentration of 10 μM (OATP1B1) or 20 μM (OATP1B3 and OATP2B1), or 0.5 μM sulforhodamine 101 (OATP1A2). Thereafter, cells were incubated at 37°C for 15 min (OATP1B1 and OATP2B1), 10 min (OATP1A2), or 30 min (OATP1B3). The reactions were stopped by removing the supernatants, then the cells were washed three times with ice-cold PBS. Fluorescence (in 200 μL PBS/well) was determined employing an Enspire plate reader (Perkin Elmer, Waltham, MA) ex/em: 403/517 nm (pyranine) or 586/605 nm (sulforhodamine 101). OATP-dependent transport was calculated by extracting fluorescence measured in mock transfected cells. Transport activity was calculated based on the fluorescence signal in the absence (100%) of flavonoids. Experiments were repeated at least in three biological replicates. IC50 values were calculated by Hill1 fit, using the Origin Pro8.6 software ([…]).

[2] = some human subjects, 500 mg single dose of Q in certain oral carrier systems; cited from earlier work
[3] = 0.5 μM sulforhodamine 101, 10 min
[4] = 0.5 μM sulforhodamine 101, 10 min, read-out: IC50 for OATP1A2

| Compound | concentration causing statistically significant (p < 0.01) inhibition, OATP1A2 [1, 3] [µM] | IC50 [1, 4] | peak plasma concentrations of total Q [2] [µM] | IC50 ([1]; IC50 for OATP1A2, 0.5 μM sulforhodamine 101, 10 min) [µM] |
| --- | --- | --- | --- | --- |
| O=c1c(O)c(-c2ccc(O)c(O)c2)oc2cc(O)cc(O)c12 [Q, quercetin] | 3.1 | 10.1 µM | 5 to 10 | – |
| COc1cc(-c2oc3cc(O)cc(O)c3c(=O)c2OC2OC(C(=O)O)C(O)C(O)C2O)ccc1O (centres unmarked) [I3G, isorhamnetin-3-glucuronide] | 12.5 | > 30 µM | – | – |
| O=c1c(O)c(-c2ccc(O)c(OS(=O)(=O)O)c2)oc2cc(O)cc(O)c12 [Q3′S, quercetin-3′-sulfate] | 0.8 | 4.9 µM and 4.92 µM | – | – |
| O=C(O)C1OC(Oc2c(-c3ccc(O)c(O)c3)oc3cc(O)cc(O)c3c2=O)C(O)C(O)C1O (centres unmarked) [Q3G, quercetin-3-glucuronide] | 25 | > 30 µM | – | – |
| COc1cc(-c2oc3cc(O)cc(O)c3c(=O)c2O)ccc1O [IR, isorhamnetin] | 3.1 | – | – | > 30 |

Source: article PMC7468908 (Nutrients, 2020)
